Measured values reported in patent publication US20040053966A1, “Chemical derivatives and their application as antitelomerase agent” (Aventis Pharms S.A., priority 1999, published 2004).

Assays:
[1] = tested on: G-quadruplex of oligonucleotide GGGTTAGGGTTAGGGTTAGGG (3.5 repeats of the human telomeric motif); assay: G-quadruplex stabilizing activity, fluorescence Tm (FAM+DABCYL oligonucleotide); assay type: binding; conditions: test product 1 μM, oligonucleotide 0.2 μM, 0.1 M LiCl, 10 mM cacodylate pH 7.6; reference without product 44° C.
Text: The G-quadruplex stabilizing activity may be determined by a method using the formation of a complex with fluorescein of which the experimental protocol is described below. Oligonucleotides […] The oligonucleotide FAM+DABCYL carries the catalogue reference OL-0371-0802. It has the sequence: […] The fluorescein is attached to the 5' end, the DABCYL to the 3' end, by the chemical arms described by Eurogentec. The concentration of the samples is checked by spectrophotometry, recording the absorbance spectrum between 220 and 700 nm and using the molar extinction coefficient provided by the supplier. Buffers All the experiments were carried out in a 10 mM sodium cacodylate buffer pH 7.6 containing 0.1 M lithium chloride (or sodium chloride). The absence of fluorescent contamination in the buffer was checked beforehand. The fluorescent oligonucleotide is added at the final concentration of 0.2 μM. Study of Fluorescence All the measurements of fluorescence were carried out on a Spex Fluorolog DMlB apparatus, using an excitation line width of 1.8 nm and an emission line width of 4.5 nm. The samples are placed in a microquartz cuvette of 0.2×1 cm. The temperature of the sample is controlled by an external water bath. The oligonucleotide alone was analysed at 20, 30, 40, 50, 60, 70 and 80° C. The emission spectra are recorded using an excitation wavelength of 470 nm. The excitation spectra are recorded using either 515 nm or 588 nm as emission wavelength. The spectra are corrected for the response of the instrument by reference curves. A high extinction (80-90%) of the fluorescence of fluorescein at room temperature is observed, in agreement with an intramolecular folding of the oligonucleotide at 20° C. in the form of a G-quadruplex, which induces juxtaposition of its [NT] ends which are respectively linked to fluorescein and to DABCYL. This juxtaposition causes an already-described phenomenon of extinction of fluorescence which is used for “molecular beacons”. Fluorescence Tm: […] The samples are then allowed to incubate for at least 1 hour at 20° C. before each measurement. The use of longer incubation times (up to 24 hours) has no influence on the result obtained. Each experiment allows the measurement of only one sample. The latter is first incubated at an initial temperature of 20° C., heated to 80° C. over 38 minutes, left for 5 minutes at 80° C. and then cooled to 20° C. over 62 minutes. During this time, the fluorescence is measured simultaneously at two emission wavelengths (515 nm and 588 nm) using 470 nm as excitation wavelength. A measurement is carried out every 30 seconds. The temperature of the water bath is recorded in parallel, and the fluorescence profile as a function of the temperature is reconstituted from these values. The fluorescence profiles are then normalized between 20° C. and 80° C., and the temperature for which the intensity of emission at 515 nm is the mean of those at high and low temperature is called Tm. Under these conditions, the Tm of the reference sample without addition of product is 44° C. in a lithium chloride buffer. This temperature is increased to more than 55° C. in a sodium chloride buffer. The addition of a G-quadruplex-stabilizing compound induces an increase in the Tm. This increase is judged to be significant if it is greater than […].

[2] = tested on: human telomerase (HL60 cell extract); assay: Antitelomerase activity, TRAP (extension of oligonucleotide TS and PCR amplification); assay type: biochemical; conditions: telomerase extract from HL60 cells
[3] = tested on: A549 cells; assay: Cytotoxic activity on human tumour line A549 (neutral red); assay type: cell-based; conditions: Homo sapiens, A549, 96 h, 96 hours incubation, read-out: Cytotox. A549 IC50
Method: The Cytotoxic Biological Activity on Human Tumour Lines is Determined According to the Following Experimental Protocol:
The cells at the exponential growth phase are trypsinized, washed in 1× PBS and are inoculated in 96-well microplates (Costar) in an amount of 4×10^4 cells/ml for A549 and of 1.5×10^4 cells/ml (0.2 ml/well) and then incubated for 96 hours in the presence of variable concentrations of product to be studied (10, 1, 0.1 and 0.01 μg/ml, each point in quadruplicate). 16 hours before the end of the incubation, 0.02% final of neutral red is added to each well. At the end of the incubation, the cells are washed with 1× PBS and lysed with 1% sodium lauryl sulphate. The cellular incorporation of the dye, which reflects cellular growth, is evaluated by spectrophotometry at a wavelength of 540 nm for each sample with the aid of a Dynatech MR5000 reading apparatus.
(compound value−blank value/cell control value−blank value)×100.

Structure (SMILES)	G4 Tm [1] [°C]	IC50 [2] [nM]	IC50 [3] [nM]
CCn1c2ccccc2c2cc(Nc3nc(Nc4ccc5nc(C)cc(N)c5c4)nc(SC)n3)ccc21 [Example 18-11]	48	3300	1300
CCN(CC)c1nc(Nc2ccc3ncccc3c2)nc(Nc2ccc3nc(C)cc(N)c3c2)n1 [Example 19-1]	58	1000	1500
